Counter-ions that a name gives are not always drawn.
Test system: panel of breast cancer cell lines
Assay: Compound A with targeted agents and chemotherapies, 72-hour in vitro proliferation assays
Format: cell-based
Conditions: 72-hour proliferation
[1] = AU565 cell line, compound A × partner
[2] = BT-20 cell line, compound A × partner
[3] = CAL-51 cell line, compound A × partner
[4] = CAL-85-1 cell line, compound A × partner
[5] = CAL-120 cell line, compound A × partner
[6] = CAL-148 cell line, compound A × partner
[7] = CAMA-1 cell line, compound A × partner
[8] = DU-4475 cell line, compound A × partner
[9] = EVSA-T cell line, compound A × partner

SMILES: Nc1ccn([C@@H]2O[C@H](CO)[C@@H](O)C2(F)F)c(=O)n1 [Gemcitabine Hydrochloride]
- Best CI [1]: 0.56
- Bliss Volume [1]: 10.13
- HSA volume [1]: 3.57
- Loewe Volume [1]: 2.71
- Synergy Score [1]: 9.40
- Best CI [2]: 0.70
- Bliss Volume [2]: 4.35
- HSA volume [2]: 4.94
- Loewe Volume [2]: 3.32
- Synergy Score [2]: 11.12
- Best CI [3]: 0.47
- Bliss Volume [3]: 3.26
- HSA volume [3]: 3.22
- Loewe Volume [3]: 3.49
- Synergy Score [3]: 5.10
- Best CI [4]: 0.58
- Bliss Volume [4]: 9.98
- HSA volume [4]: 8.91
- Loewe Volume [4]: 7.81
- Synergy Score [4]: 10.96
- Best CI [5]: 0.21
- Bliss Volume [5]: −5.00
- HSA volume [5]: −5.87
- Loewe Volume [5]: −4.98
- Synergy Score [5]: 0.88
- Best CI [6]: 0.36
- Bliss Volume [6]: 19.19
- HSA volume [6]: 20.88
- Loewe Volume [6]: 20.22
- Synergy Score [6]: 35.99
- Best CI [7]: 0.06
- Bliss Volume [7]: 26.55
- HSA volume [7]: 18.50
- Loewe Volume [7]: 18.89
- Synergy Score [7]: 40.36
- Bliss Volume [8]: −3.76
- HSA volume [8]: −3.58
- Loewe Volume [8]: −2.68
- Synergy Score [8]: 0.17
- Best CI [9]: 1.07
- Bliss Volume [9]: 9.65
- HSA volume [9]: 2.02
- Loewe Volume [9]: 1.29
- Synergy Score [9]: 5.11
- Best CI (HCC38, compound A × partner): 0.51
- Bliss Volume (HCC38, compound A × partner): 21.72
- HSA volume (HCC38, compound A × partner): 8.18
- Loewe Volume (HCC38, compound A × partner): 6.75
- Synergy Score (HCC38, compound A × partner): 14.50
- Best CI (HCC70, compound A × partner): 0.26
- Bliss Volume (HCC70, compound A × partner): 18.66
- HSA volume (HCC70, compound A × partner): 18.52
- Loewe Volume (HCC70, compound A × partner): 17.52
- Synergy Score (HCC70, compound A × partner): 26.37
- Best CI (HCC1143, compound A × partner): 0.15
- Bliss Volume (HCC1143, compound A × partner): 4.32
- HSA volume (HCC1143, compound A × partner): 8.39
- Loewe Volume (HCC1143, compound A × partner): 7.81
- Synergy Score (HCC1143, compound A × partner): 9.41
- Best CI (HCC1569, compound A × partner): 0.68
- Bliss Volume (HCC1569, compound A × partner): 3.74
- HSA volume (HCC1569, compound A × partner): 6.80
- Loewe Volume (HCC1569, compound A × partner): 6.28
- Synergy Score (HCC1569, compound A × partner): 5.52
- Best CI (HCC1806, compound A × partner): 0.13
- Bliss Volume (HCC1806, compound A × partner): 17.89
- HSA volume (HCC1806, compound A × partner): 18.06
- Loewe Volume (HCC1806, compound A × partner): 17.74
- Synergy Score (HCC1806, compound A × partner): 30.81
- Best CI (HCC1937, compound A × partner): 0.45
- Bliss Volume (HCC1937, compound A × partner): 2.34
- HSA volume (HCC1937, compound A × partner): 0.77
- Loewe Volume (HCC1937, compound A × partner): 2.36
- Synergy Score (HCC1937, compound A × partner): 2.33
- Best CI (HCC1954, compound A × partner): 0.28
- Bliss Volume (HCC1954, compound A × partner): 3.78
- HSA volume (HCC1954, compound A × partner): 5.17
- Loewe Volume (HCC1954, compound A × partner): 5.09
- Synergy Score (HCC1954, compound A × partner): 7.13
- Best CI (HCC2218, compound A × partner): 0.36
- Bliss Volume (HCC2218, compound A × partner): 5.46
- HSA volume (HCC2218, compound A × partner): 4.02
- Loewe Volume (HCC2218, compound A × partner): 2.80
- Synergy Score (HCC2218, compound A × partner): 6.54
- Best CI (HDQ-P1, compound A × partner): 0.40
- Bliss Volume (HDQ-P1, compound A × partner): −3.49
- HSA volume (HDQ-P1, compound A × partner): −0.19
- Loewe Volume (HDQ-P1, compound A × partner): 0.42
- Synergy Score (HDQ-P1, compound A × partner): 2.05
- Best CI (HMC-1-8, compound A × partner): 0.19
- Bliss Volume (HMC-1-8, compound A × partner): 24.97
- HSA volume (HMC-1-8, compound A × partner): 9.34
- Loewe Volume (HMC-1-8, compound A × partner): 8.40
- Synergy Score (HMC-1-8, compound A × partner): 17.19
- Best CI (JIMT-1, compound A × partner): 0.05
- Bliss Volume (JIMT-1, compound A × partner): 4.37
- HSA volume (JIMT-1, compound A × partner): 3.74
- Loewe Volume (JIMT-1, compound A × partner): 3.50
- Synergy Score (JIMT-1, compound A × partner): 1.80
- Synergy Score (MCF7 cells, Compound A × partner agent): 11.61
